17 compounds from patent publication US20240059698A1 (Accutar Biotechnology Inc., priority 2022, published 2024) can be followed below.

Broadly, the GI50 is the concentration that inhibits growth by half.

What all share (format): cell-based
Experiment [1] relates to HCC827-YVMA cells (human ERBB2 exon20 insertion mutant A775_G776ins YVMA). As to the kind of experiment: Cell growth inhibition (CellTiter-Glo), HCC827-YVMA. To be noted: 72 h, HCC827-YVMA cells, 3 days, CellTiter-Glo, read-out: Cell growth inhibition, GI50 (nM) HCC827-YVMA. An outline of the steps:
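Growth in RPMI with 10% FBS was measured by CellTiter-Glo luminescence after 3 days at 37 °C with test compounds across a concentration range. The single-clone HCC827 lines carry a lentiviral YVMA (ERBB2) or ASV (EGFR) exon 20 insertion, with endogenous EGFR removed via sgRNA/Cas9.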

In experiment [2] the test system is A431 cells. As to the kind of experiment: Cell growth inhibition (CellTiter-Glo), A431. To be noted: Homo sapiens, A-431, 72 h, 3 days. Here is the method: 2. Cell Growth Inhibition for HCC827, HCC827-SVD, HCC827-ASV, HCC827-YVMA, and A431.
HCC827(ATCC), HCC827-SVD, HCC827-ASV, and HCC827-YVMA cells were seeded in 96-well plates at 5000 cells/well in 90 μL of RPMI growth medium containing 10% FBS and 1% Penicillin Streptomycin. A431 (ATCC) cells were seeded in 96-well plates at 5000 cells/well in 90 μL of DMEM growth medium containing 10% FBS and 1% Penicillin Streptomycin. Cells were incubated at 37° C. overnight and then administered with 10 μL 10× test compounds prepared in the growth medium at various concentrations. After administration of the compounds, cells were incubated at 37° C. for 3 days. Before the CellTiter-Glo assay, the plates were equilibrated at room temperature for approximately 30 minutes. 100 ul of CellTiter-Glo reagent (Promega) was added to each well. The plates were then incubated at room temperature for 10 minutes and luminescence was recorded by the EnSight® multimode plate reader (PerkinElmer). Table 7 listed selected compounds in cellular growth assay.
For orientation: In ATP-based viability assays light output follows the ATP content of the culture.

The test system of experiment [3] is HCC827 cells. As to the kind of experiment: Cell growth inhibition (CellTiter-Glo), HCC827. The note with it: Homo sapiens, 72 h, 3 days. An outline of the steps: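 Readout was CellTiter-Glo luminescence after 3-day compound treatment at 37° C. Cells were seeded at 5000/well the previous night: HCC827 in RPMI/10% FBS, A431 in DMEM/10% FBS.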
The subject of experiment [4] is HCC827-SVD cells (human EGFR exon 20 insertion mutant D770_N771insSVD). The experiment in a line: Cell growth inhibition (CellTiter-Glo), HCC827-SVD. The note with it: 72 h, 3 days. An outline of the steps: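 Growth read by CellTiter-Glo luminescence after 3-day compound exposure at 37 °C. Engineered clonal HCC827 line (native EGFR deleted by CRISPR, mutant EGFR re-expressed) plated at 5000 cells/well in 10% FBS RPMI the night before dosing.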

With `C=CC(=O)N1CCC(c2c[nH]c3ncnc(Nc4ccc(OCc5cc(C)ccn5)c(Cl)c4)c23)CC1` [Compound 110, 1-(4-(4-((3-chloro-4-((4-methylpyridin-2-yl)methoxy)phenyl)amino)-7H-pyrrolo[2,3-d]pyrimidin-5-yl)piperidin-1-yl)prop-2-en-1-one], the GI50 in experiment [1] is less than 50 nM; in experiment [2], 200 to 1000 nM; in experiment [3] it was less than 50 nM; in experiment [4], less than 50 nM.
With `C=CC(=O)N1CCC(c2c[nH]c3ncnc(Nc4ccc(OCc5ccccn5)c(F)c4)c23)CC1` [Compound 111, 1-(4-(4-((3-fluoro-4-(pyridin-2-ylmethoxy)phenyl)amino)-7H-pyrrolo[2,3-d]pyrimidin-5-yl)piperidin-1-yl)prop-2-en-1-one], the GI50 is less than 50 nM in experiment [1], 50 to 200 nM in experiment [2], less than 50 nM in experiment [3] and less than 50 nM in experiment [4].
Consider `C=CC(=O)N1CCC(c2c[nH]c3ncnc(Nc4ccc(OCc5cc(C(F)(F)F)ccn5)c(Cl)c4)c23)CC1` [Compound 113, 1-(4-(4-((3-chloro-4-((4-(trifluoromethyl)pyridin-2-yl)methoxy)phenyl)amino)-7H-pyrrolo[2,3-d]pyrimidin-5-yl)piperidin-1-yl)prop-2-en-1-one], for which the GI50 in experiment [1], in experiment [2], in experiment [3] and in experiment [4] was less than 50 nM each time.
On to `C=CC(=O)N1CCC(c2c[nH]c3ncnc(Nc4ccc(OCc5cnccn5)c(Cl)c4)c23)CC1` [Compound 116, 1-[4-[4-[3-chloro-4-(pyrazin-2-ylmethoxy)anilino]-7H-pyrrolo[2,3-d]pyrimidin-5-yl]-1-piperidyl]prop-2-en-1-one], for which the 50% growth inhibitory concentration (GI50) is less than 50 nM in experiment [1], 50 to 200 nM in experiment [2], less than 50 nM in experiment [3] and less than 50 nM in experiment [4].
As for `C=CC(=O)N1CCC(c2c[nH]c3ncnc(Nc4ccc(OCc5cscn5)c(Cl)c4)c23)CC1` [Compound 119, 1-[4-[4-[3-chloro-4-(thiazol-4-ylmethoxy)anilino]-7H-pyrrolo[2,3-d]pyrimidin-5-yl]-1-piperidyl]prop-2-en-1-one], the GI50 in experiment [1] is less than 50 nM; in experiment [2] it was 50 to 200 nM; in experiment [3], less than 50 nM; in experiment [4], less than 50 nM.
As to `C=CC(=O)N1CC(c2c[nH]c3ncnc(Nc4ccc(OCc5ccccn5)c(Cl)c4)c23)C1` [Compound 137, 1-(3-(4-((3-chloro-4-(pyridin-2-ylmethoxy)phenyl)amino)-7H-pyrrolo[2,3-d]pyrimidin-5-yl)azetidin-1-yl)prop-2-en-1-one], the 50% growth inhibitory concentration (GI50) is less than 50 nM in experiment [1], more than 1000 nM in experiment [2], 50 to 200 nM in experiment [3] and less than 50 nM in experiment [4].
Consider `C=CC(=O)N1CCC(c2c[nH]c3ncnc(Nc4ccc(Oc5ccc(-c6cc(C)[nH]c(=O)c6)cc5)c(Cl)c4F)c23)CC1` [Compound 138, 4-(4-(4-((5-(1-acryloylpiperidin-4-yl)-7H-pyrrolo[2,3-d]pyrimidin-4-yl)amino)-2-chloro-3-fluorophenoxy)phenyl)-6-methylpyridin-2(1H)-one], for which the GI50 was 200 to 1000 nM in experiment [1], more than 1000 nM in experiment [2], more than 1000 nM in experiment [3] and 50 to 200 nM in experiment [4].
Consider `C=CC(=O)N1CCC(c2c[nH]c3ncnc(Nc4ccc(Oc5ccnc(N6C[C@H](OC)[C@H](OC)C6)c5)cc4F)c23)CC1` [Compound 139, 1-(4-(4-((4-((2-((3R,4S)-3,4-dimethoxypyrrolidin-1-yl)pyridin-4-yl)oxy)-2-fluorophenyl)amino)-7H-pyrrolo[2,3-d]pyrimidin-5-yl)piperidin-1-yl)prop-2-en-1-one], for which the GI50 in experiment [1] was more than 1000 nM; in experiment [2], more than 1000 nM; in experiment [3], more than 1000 nM; in experiment [4] it was 50 to 200 nM.
On to `C=CC(=O)N1CCC(c2c[nH]c3ncnc(Nc4ccc(Oc5ccnc(N6CCC(C(F)(F)F)C6)c5)cc4F)c23)CC1` (centres unmarked) [Compound 140, 1-(4-(4-((2-fluoro-4-((2-(3-(trifluoromethyl)pyrrolidin-1-yl)pyridin-4-yl)oxy)phenyl)amino)-7H-pyrrolo[2,3-d]pyrimidin-5-yl)piperidin-1-yl)prop-2-en-1-one], for which the GI50 in experiment [1] is 50 to 200 nM; in experiment [2], more than 1000 nM; in experiment [3], 200 to 1000 nM; in experiment [4], 50 to 200 nM.
Regarding `C=CC(=O)N1CCC(c2c[nH]c3ncnc(Nc4ccc(Oc5ccnc(N6C[C@@H](C)O[C@@H](C)C6)c5)c(Cl)c4F)c23)CC1` [Compound 142, 1-(4-(4-((3-chloro-4-((2-((2S,6R)-2,6-dimethylmorpholino)pyridin-4-yl)oxy)-2-fluorophenyl)amino)-7H-pyrrolo[2,3-d]pyrimidin-5-yl)piperidin-1-yl)prop-2-en-1-one], the 50% growth inhibitory concentration (GI50) in experiment [1] was less than 50 nM; in experiment [2], more than 1000 nM; in experiment [3], more than 1000 nM; in experiment [4] it was less than 50 nM.
Regarding `C=CC(=O)N1CCC(c2c[nH]c3ncnc(Nc4ccc(Cl)c(Cl)c4F)c23)CC1` [Compound 143, 1-(4-(4-((3,4-dichloro-2-fluorophenyl)amino)-7H-pyrrolo[2,3-d]pyrimidin-5-yl)piperidin-1-yl)prop-2-en-1-one], the GI50 in experiment [1] is less than 50 nM; in experiment [2] it was more than 1000 nM; in experiment [3] it was less than 50 nM; in experiment [4] it was less than 50 nM.
For `C=CC(=O)N1CCC(c2c[nH]c3ncnc(Nc4ccc(Oc5ccnc(N6CCC(F)(F)C6)c5)cc4F)c23)CC1` [Compound 145], the GI50 is 200 to 1000 nM in experiment [1], more than 1000 nM in experiment [2], more than 1000 nM in experiment [3] and 200 to 1000 nM in experiment [4].
For the compound `C=CC(=O)N1CCC(c2c[nH]c3ncnc(Nc4ccc(Oc5ccnc(NC6CCOCC6)c5)cc4F)c23)CC1` [Compound 146, 1-(4-(4-((2-fluoro-4-((2-((tetrahydro-2H-pyran-4-yl)amino)pyridin-4-yl)oxy)phenyl)amino)-7H-pyrrolo[2,3-d]pyrimidin-5-yl)piperidin-1-yl)prop-2-en-1-one], the GI50 in experiment [1] was 200 to 1000 nM; in experiment [2], more than 1000 nM; in experiment [3] it was more than 1000 nM; in experiment [4], 200 to 1000 nM.
Take `C=CC(=O)N1CCC(c2c[nH]c3ncnc(Nc4ccc(Oc5ccnc(N6CCC[C@@H](OC)C6)c5)cc4F)c23)CC1` [Compound 147, (R)-1-(4-(4-((2-fluoro-4-((2-(3-methoxypiperidin-1-yl)pyridin-4-yl)oxy)phenyl)amino)-7H-pyrrolo[2,3-d]pyrimidin-5-yl)piperidin-1-yl)prop-2-en-1-one]: the GI50 was 50 to 200 nM in experiment [1], more than 1000 nM in experiment [2], more than 1000 nM in experiment [3] and 50 to 200 nM in experiment [4].
As to `C=CC(=O)N1CCC(c2c[nH]c3ncnc(Nc4ccc(Oc5ccnc(N6CC7C(C6)C7(F)F)c5)cc4F)c23)CC1` (centres unmarked) [Compound 148, 1-(4-(4-((4-((2-(6,6-difluoro-3-azabicyclo[3.1.0]hexan-3-yl)pyridin-4-yl)oxy)-2-fluorophenyl)amino)-7H-pyrrolo[2,3-d]pyrimidin-5-yl)piperidin-1-yl)prop-2-en-1-one], the GI50 in experiment [1] was 200 to 1000 nM; in experiment [2], more than 1000 nM; in experiment [3] it was more than 1000 nM; in experiment [4], 50 to 200 nM.
As for `C=CC(=O)N1CCC(c2c[nH]c3ncnc(Nc4ccc(Oc5nc(-c6cnc(OC)nc6)cs5)cc4F)c23)CC1` [Compound 149, 1-(4-(4-((2-fluoro-4-((4-(2-methoxypyrimidin-5-yl)thiazol-2-yl)oxy)phenyl)amino)-7H-pyrrolo[2,3-d]pyrimidin-5-yl)piperidin-1-yl)prop-2-en-1-one], the GI50 in experiment [1] was 50 to 200 nM; in experiment [2], more than 1000 nM; in experiment [3], more than 1000 nM; in experiment [4], 50 to 200 nM.
In the case of `C=CC(=O)N1CCC(c2c[nH]c3ncnc(Nc4ccc(Oc5ccn(-c6cnc(C)c(F)c6)n5)cc4F)c23)CC1` [Compound 150, 1-(4-(4-((2-fluoro-4-((1-(5-fluoro-6-methylpyridin-3-yl)-1H-pyrazol-3-yl)oxy)phenyl)amino)-7H-pyrrolo[2,3-d]pyrimidin-5-yl)piperidin-1-yl)prop-2-en-1-one], the 50% growth inhibitory concentration (GI50) in experiment [1] was 50 to 200 nM; in experiment [2], more than 1000 nM; in experiment [3], 200 to 1000 nM; in experiment [4] it was 50 to 200 nM.
